Experimental data reported in article PMC6095626, “Screening of the Pathogen Box for inhibitors with dual efficacy against Giardia lamblia and Cryptosporidium parvum” (PLoS Neglected Tropical Diseases, 2018).

How the values were obtained:
[1] = test system: G. lamblia trophozoites (luciferase expressing, WBC6); test: microbe, parasite or virus in culture; format: cell-based, Giardia lamblia; conditions: for Giardia (16 uM) Mean % inhibition: initial Pathogen Box screen, single concentration 16 µM, inhibition compared to DMSO wells
Experimental: Trophozoites were harvested by chilling cultures on ice for 30 minutes and plated by adding 150 μL per well at a concentration of 250,000 cells/mL. Metronidazole (Sigma, St. Louis, MO) was used as a control and was serially diluted 1:2 from 40 μM to 0.04 μM and 150 μL was added to the 150 μL of the G. lamblia trophozoites. Plates were covered in plastic low-evaporation lids, sealed in individual anaerobic BD GasPak Bio-Bags (Becton Dickinson, San Jose, CA) and incubated at 37 °C for 24 hours. […] A duplicate plate was concurrently set up and assayed using a MOXI Z Mini Automated Cell Counter Kit (Orflo, Ketchum, ID). Results obtained from the bioluminescence assay and the MOXI counter data were compared to evaluate their correlation to each another. Albendazole (Sigma, St. Louis, MO), an alternative giardiasis therapeutic, was assayed in concentrations from 4 μM to 0.004 μM with only the luciferase expressing G. lamblia cells. […]

[2] = test system: C. parvum (UGA1 Nluc expressing strain in HCT-8 cells); test: microbe, parasite or virus in culture; format: cell-based, Cryptosporidium parvum; conditions: for Crypto (10 uM) Mean % inhibition: initial Pathogen Box screen, single concentration 10 µM, inhibition compared to DMSO wells; for C. parvum cell growth inhibition in the initial screen: 10 μM; for C. parvum cell growth inhibition in the initial screen / EC50: 48 hours; for EC50: Nluc C. parvum in HCT-8 cells, read-out: C. parvum EC50
Experimental: Growth inhibition and EC50 determination assays were performed using UGA1 Nluc expressing C. parvum strain in HCT-8 cells (ATCC^©, Manassas, VA) as previously described. HCT-8 cells were inoculated onto 96-well plates and allowed to grow for 48 hours to 90–100% confluence and then treated with single concentration (10 μM) or serially diluted compounds prior to oocyst infection. C. parvum oocysts were incubated for 10 minutes in 10% bleach at room temperature and then washed with DPBS. […] The cell monolayers were lysed for 1 hour before adding Nano-Glo® luciferase reagent (Promega, Madison, WI), and measuring relative luminescence units (RLU) in an EnVision Plate Reader (Perkin Elmer, Waltham, MA). Several parameters, including reproducibility and reliability, were previously evaluated to optimize this assay for low and high-throughput (HTP) screening of small molecule compounds against C. parvum. EC50 values were calculated using Prism 7 software (GraphPad Software, San Diego, CA).
C. parvum screening against the Pathogen Box compounds was performed as previously described starting at a concentration of 10 μM [23].

SMILES	Giardia (16 uM) Mean % inhibition [1]	Crypto (10 uM) Mean % inhibition [2]	C. parvum cell growth inhibition in the initial screen [2] [%]	EC50 [2] [nM]	G. lamblia inhibition of parasite growth in the initial screen ([1]; 16 μM, 24 hours) [%]	G. lamblia EC50 ([1]; luciferase expressing G. lamblia trophozoites, 24 hours, D-luciferin bioluminescence read-out)
FC(F)(F)c1cnc(Sc2nnc(-c3ccncc3)o2)c(Cl)c1 [MMV011765]	53%	89%				
CO[C@@H](C(=O)N1Cc2[nH]nc(NC(=O)c3ccc(N4CCN(C)CC4)cc3)c2C1)c1ccccc1 [MMV676600]	6%	76%				
O=C(NCc1ccoc1)N1CCN(Cc2ccc3c(c2)OCO3)CC1 [MMV688553]	50%	56%				
O=C(CN1CCOCC1)Nc1ccc2ncnc(Nc3ccc(OCc4cccc(F)c4)c(Cl)c3)c2c1 [MMV688274]	26%	47%				
CC(C)(C)c1ccc(N[C@@H]2CCCC[C@H]2NC(=O)c2ccco2)cc1 [MMV675969]	32%	X* (Mean or standard deviation are negative but not significantly different from the control to be a growth promoter)				
O=C(OCc1ccccc1)N1CCC(c2cc(-c3ccncc3)c(-c3ccc(F)cc3)[nH]2)CC1 [MMV688509]	41%	X* (Mean or standard deviation are negative but not significantly different from the control to be a growth promoter)				
N#Cc1nc(-c2ccccc2)oc1S(=O)(=O)c1ccc(Cl)cc1 [MMV676412]	49%	77%				
C[C@H]1COc2c(N3CCN(C)CC3)c(F)cc3c(=O)c(C(=O)O)cn1c23 [MMV687798]	61%	50%				
Brc1cncc(-c2cc(NCCCn3ccnc3)nc(-c3ccccc3)n2)c1 [MMV661713]	X* (Mean or standard deviation are negative but not significantly different from the control to be a growth promoter)	X* (Mean or standard deviation are negative but not significantly different from the control to be a growth promoter)				
O=C(Nc1cnc2ccccc2c1)c1cccc(-n2cnnn2)c1 [MMV084864]	63%	34%				
CC(C)(C)C(O)C(Oc1ccc(-c2ccccc2)cc1)n1cncn1 (centres unmarked) [MMV688942]	40%	X* (Mean or standard deviation are negative but not significantly different from the control to be a growth promoter)				
CCN(CC)CCCCCCNc1cc(OC)cc2c(C)ccnc12 [MMV000063]	26%	62%				
CC(C)C(C(=O)Nc1ccc(S(=O)(=O)N(C)C)cc1)c1ccc(Cl)cc1 (centres unmarked) [MMV020391]	8%	67%				
Cn1ncc2c(N3CCOCC3)nc(NCCc3c[nH]c4ccccc34)nc21 [MMV676382]	60%	83%				
CCc1c(C)nc(-n2nc(C)cc2NC(=O)c2ccccc2SC)[nH]c1=O [MMV676477]	28%	96%	≥ 95	220		
CNC(=O)C1Cc2ccccc2N1C(=O)Cc1ccc(F)cc1 (centres unmarked) [MMV188296]	33%	54%				
COc1ccc(Cn2cnc3c(-c4ccco4)nc(Cl)nc32)cc1 [MMV687170]	40%	77%				
CN1CCN(S(=O)(=O)c2ccc(-c3ccc4c(Nc5ncc(Cl)cn5)ccnc4c3)cc2)CC1 [MMV688283]	95%	89%			≥ 95	not potent
CC(=O)Nc1ccc(NC(=O)c2cc(-c3cc(Cl)ccc3O)n[nH]2)cc1 [MMV676380]	X* (Mean or standard deviation are negative but not significantly different from the control to be a growth promoter)	34%				
Cc1ccc(C(=O)Nc2ccc(S(=O)(=O)O)c3cc(S(=O)(=O)O)cc(S(=O)(=O)O)c23)cc1NC(=O)c1cccc(NC(=O)Nc2cccc(C(=O)Nc3cc(C(=O)Nc4ccc(S(=O)(=O)O)c5cc(S(=O)(=O)O)cc(S(=O)(=O)O)c45)ccc3C)c2)c1 [MMV637953]	10%	36%				

SMILES	Giardia (16 uM) Mean % inhibition [1]	Crypto (10 uM) Mean % inhibition [2]	C. parvum cell growth inhibition in the initial screen [2] [%]	EC50 [2] [nM]	G. lamblia inhibition of parasite growth in the initial screen ([1]; 16 μM, 24 hours) [%]	G. lamblia EC50 ([1]; luciferase expressing G. lamblia trophozoites, 24 hours, D-luciferin bioluminescence read-out)
NCC(=O)N1CCn2c(nc(-c3ccccc3)c2Nc2ccc3c(c2)OCO3)C1 [MMV011691]	20%	X* (Mean or standard deviation are negative but not significantly different from the control to be a growth promoter)				
O=C(NCc1ccco1)N1CCN(Cc2ccc(Cl)s2)CC1 [MMV688555]	34%	X* (Mean or standard deviation are negative but not significantly different from the control to be a growth promoter)				
CCOc1ccc(OCC(=O)Nc2cc(C)cc(C)c2)cc1 [MMV676470]	12%	X* (Mean or standard deviation are negative but not significantly different from the control to be a growth promoter)				
c1ccc(C[C@@H]2CN(c3nccc(Oc4ccc(-n5ccnc5)cc4)n3)CCN2)cc1 [MMV687749]	24%	58%				
Clc1ccc(CCNc2cc(-c3ccccc3)nc3ncnn23)cc1 [MMV688889]	65%	51%				
Nc1ncnc2n[nH]c(Cc3cccc4ccccc34)c12 [MMV688469]	9%	57%				
Nc1ccc(C(=O)Nc2ccc(-c3nc4ccccc4o3)cc2)cc1 [MMV007920]	60%	63%				
CCCCc1ccc(C(=O)Nc2nccc3ccccc23)nc1 [MMV687254]	X* (Mean or standard deviation are negative but not significantly different from the control to be a growth promoter)	77%				
O=C1Nc2ccc(Br)cc2C12NCCc1c2[nH]c2ccccc12 (centres unmarked) [MMV006239]	X* (Mean or standard deviation are negative but not significantly different from the control to be a growth promoter)	53%				
O=C(COc1cccc(F)c1)Nc1nc(-c2ccccn2)cs1 [MMV676409]	X* (Mean or standard deviation are negative but not significantly different from the control to be a growth promoter)	67%				
CCN(CC)C(=O)N1CCN(C)CC1 [MMV002816]	29%	X* (Mean or standard deviation are negative but not significantly different from the control to be a growth promoter)				
CCc1nc2ccc(Cl)cn2c1C(=O)NCc1ccc(N2CCC(c3ccc(OC(F)(F)F)cc3)CC2)cc1 [MMV687696]	26%	21%				
COc1cc(OC)cc(C(=O)NCC2Cc3cc(Cl)cc(-c4ccncc4)c3O2)c1 (centres unmarked) [MMV007471]	23%	50%				
COc1cccc(OCC(=O)c2ccc(Br)cc2)c1 [MMV676379]	80%	55%				
CNc1nnc(Sc2cnn(-c3ccccc3)c(=O)c2Cl)s1 [MMV688763]	X* (Mean or standard deviation are negative but not significantly different from the control to be a growth promoter)	49%				
O=C(Nc1nnc(-c2ccc(Cl)cc2)o1)c1cccc(C(F)(F)F)c1 [MMV102872]	35%	95%	≥ 95	140		
c1ccc(-c2cc(N3CCCCC3)c3ccccc3n2)nc1 [MMV560185]	X* (Mean or standard deviation are negative but not significantly different from the control to be a growth promoter)	47%				
CC(=O)N1CCN(c2ccc(Oc3ccc(Cl)cc3O)cc2)CC1 [MMV688330]	X* (Mean or standard deviation are negative but not significantly different from the control to be a growth promoter)	56%				
COc1cc(Br)cc2cc(C(=O)Nc3cccc(C(F)(F)F)c3)c(=O)oc12 [MMV688891]	7.41%	51%				
CC1=NN(c2nc3ccccc3s2)C(=O)C1Cc1cccc2ccccc12 (centres unmarked) [MMV676558]	42%	89%				
